These results are taken from patent US10525100B2, “ATF5 peptide variants and uses thereof” (Sapience Therapeutics, Inc., priority 2018, dated 2020).

One data set concerns HL60 cells. In words: HL60 cell viability assay (Annexin V FITC / PI flow cytometry). As to conditions: for EC50: 48 h; for cytotoxic activity compared with another peptide: HL60 cell viability, FIGS. 2-5, in words. Format: cell-based, human. The protocol:
HL60 PML suspension cells were set at a density of 3.5×10^3 cells/well in 150 μL of RPMI+1.5% fetal bovine serum (FBS) in a 96 well dish. ST-3, reconstituted at a concentration of 10 mg/mL in 20 mM His, pH 7.5, was added to each well at a volume of 50 μL to a final concentration range of 0-80 μM. Cells were incubated with ST-3 for 48 hours at 37° C. Cell viability was quantified by flow cytometry using an Abcam Annexin V FITC apoptosis detection kit. Briefly, cells were washed with PBS and resuspended in 1× assay buffer containing Annexin V FITC and propidium iodide (PI). Annexin V detects apoptotic cells, and PI stains dead cells. After staining, apoptotic cells show green fluorescence, dead cells show red and green fluorescence, and live cells show little or no fluorescence. Cells were selected for analysis based on forward scatter (FSC) vs. side scatter (SSC), and analyzed by BD Accuri C6 Plus flow cytometer to detect Annexin V-FITC binding (Ex=488 nm; Em=530 nm) using FITC signal detector and PI staining by the phycoerythrin emission signal detector. Percentage of Annexin V^low and PI^low were quantified and presented as % Viability.
Lyophilized ST-3 or ST-3 with glycine (ST-4) or alanine (ST-5) substituted for cysteine at amino acid position 21 was freshly reconstituted in histidine buffer to a stock solution of 5 mg/mL and added to cells at a final concentration range of 0-40 μM. Cells were incubated with ATF5 peptide for 48 hours prior to quantification of cell viability.
(§1) ST-13 was further examined in various human cancer cell lines, as was a second retro-inverso variant, ST-14. Suspension cells (HL60, AML14, or SET2) were set at a density of 3.5×10^3 cells/well in 150 μL of RPMI+1.5% fetal bovine serum (FBS) in a tissue culture-treated 96 well dish. ATF5 peptide, reconstituted at a concentration of 10 mg/mL in 20 mM His, pH 7.5, was added to each well at a volume of 50 μL to a final concentration range of 0-80 μM. Cells were incubated with peptide for 48 hours at 37° C. Cell viability was quantified by flow cytometry using an Abcam Annexin V FITC apoptosis detection kit. Briefly, cells were washed with PBS and resuspended in 1× assay buffer containing Annexin V FITC and propidium iodide (PI). Cells were analyzed by BD Accuri C6 Plus flow cytometer to detect Annexin V-FITC binding (Ex=488 nm; Em=530 nm) using FITC signal detector, and to detect PI staining using the phycoerythrin emission signal detector. Percentage of Annexin V^low and PI^low were quantified and presented as % Viability. EC50 values were calculated using GraphPad Prism v.7 XML.

For a further data set, the system named is A375 cells. Format: cell-based, human. Here is the method: (§2) Additionally, adherent A375, MCF7, U251, DU145, U87, and A549 cells were set at a density of 3.5×10^3 cells/well in 200 μL of media on day −1. On day 0, media was removed and replenished with 150 μL of fresh media, and cells were treated with ATF5 peptide as described. Following a 48-hour incubation at 37° C., floating cells were collected, adherent cells were washed with Dulbecco's Phosphate Buffered Saline (DPBS), dissociated from the dish with 50 μL 2.5% trypsin at RT, and combined with floating cells. Cell viability was determined as described above for suspension cells or by MTT assay (MCF7 cells). Alternatively, cells were gently removed from the cell culture plate following trypsinization with 2.5% trypsin, and cell viability was quantified by flow cytometry using an Abcam Annexin V FITC apoptosis detection kit, as described above.

In data set [1] the test system is wide range of tumor cell types. In words: Cytotoxic activity in various human cancer cell lines. Format: cell-based. As to conditions: in words; FIGS. 6A-6E, 7A-7E. The protocol: as §1, with “Briefly, cells were washed with PBS and resuspended in 1× assay buffer containing Annexin V FITC and propidium iodide (PI).” left out, “XML. […] Cell viability was determined as described above for suspension cells or by MTT assay (MCF7 cells). Alternatively, cells were gently removed from the cell culture plate following trypsinization with 2.5% trypsin, and cell viability was quantified by flow cytometry using an Abcam Annexin V FITC apoptosis detection kit, as described above.” for “XML.”

The test system of a further data set is AML14 cells. Format: cell-based, human. Here is the method:
as §1

A further data set concerns SET2 cells. Format: cell-based, human. Here is the method:
as §1

A further data set concerns MCF7 cells. Format: cell-based, human. The protocol: as §2

Ends that are not written are not given here.

In the case of `CC[C@@H](C)[C@@H](NC(=O)[C@@H](CCCCN)NC(=O)[C@H](NC(=O)[C@@H](Cc1c[nH]c2ccccc12)NC(=O)[C@@H](Cc1ccccc1)NC(=O)[C@@H](CCC(N)=O)NC(=O)[C@@H](CC(N)=O)NC(=O)[C@@H](CCCNC(=N)N)NC(=O)[C@@H](CCCNC(=N)N)NC(=O)[C@@H](CCSC)NC(=O)[C@@H](CCCCN)NC(=O)[C@@H](Cc1c[nH]c2ccccc12)NC(=O)[C@@H](CCCCN)NC(=O)[C@@H](CCCCN)NC(=O)[C@@H](CC(C)C)NC(=O)[C@@H](CCC(=O)O)NC(=O)CNC(=O)[C@@H](CCCNC(=N)N)NC(=O)[C@@H](C)NC(=O)[C@@H](CCC(N)=O)NC(=O)CNC(=O)[C@@H](CC(C)C)NC(=O)[C@@H](CCCNC(=N)N)NC(=O)[C@@H](C)NC(=O)[C@@H](CCC(=O)O)NC(=O)[C@@H](CC(C)C)NC(=O)[C@@H](CCCNC(=N)N)NC(=O)[C@@H](CCC(=O)O)NC(=O)[C@@H](CC(C)C)NC(=O)[C@@H](CCC(=O)O)NC(=O)[C@@H](CCC(=O)O)NC(=O)[C@@H](CCCNC(=N)N)NC(=O)[C@@H](C)NC(=O)[C@@H](CCC(=O)O)NC(=O)[C@@H](C)NC(=O)[C@H](N)C(C)C)[C@H](C)CC)C(=O)N[C@H](CCC(N)=O)C(=O)N[C@H](CCCNC(=N)N)C(=O)O` [ST-13], the EC50 (commonly the concentration that produces a half-maximal response) with HL60 cells came out at 4.8 µM; in the data set on A375 cells it was 1.4 µM. In addition, the “cytotoxic activity in tumor cell types” value in data set [1] is “significant cytotoxic activity”.

With “RQIKIWFQNRRMKWKKLEGEAQGLEARNRELKERAESV [ST-5]”, in the data set with HL60 cells, the EC50 is around 38 µM and the “cytotoxic activity compared with another peptide” value is “attenuated but not ablated”.

Turning to “RQIKIWFQNRRMKWKKLEGECQGLEARNRELKERAEAV [ST-6]”, in the data set with HL60 cells, the EC50 is 11.2 µM and the “cytotoxic activity compared with another peptide” value is “comparable activity to ST-3”.

As for “RQIKIWFQNRRMKWKKLEGECQGLEARNRELKERAESV [ST-3, reference compound]”, the EC50 worked out at 29.6 µM in the data set on AML14 cells, 98.2 µM in the data set with SET2 cells, 21.8 µM in the data set on A375 cells and 52.9 µM in the data set with MCF7 cells.

Take “RQIKIWFQNRRMKWKKLEGEGQGLEARNRELKERAESV [ST-4]”: in the data set with HL60 cells, the EC50 was around 35 µM and the “cytotoxic activity compared with another peptide” value is given as “attenuated but not ablated”.

As to “RQIKIWFQNRRMKWKKLEGRAQGLRAELRELEERAEAV [ST-11]”, in the data set on HL60 cells, the EC50 came out at 4.2 µM and the “cytotoxic activity compared with another peptide” value is given as “improved cytotoxic activity over ST-3”.

For “RQIKIWFQNRRMKWKKLEGRCQGLRAELRELEERAEAV [ST-10]”, in the data set on HL60 cells, the EC50 came out at 2.2 µM and the “cytotoxic activity compared with another peptide” value is “comparable to that of ST-9”.

Take “RQIKIWFQNRRMKWKKLEGRCQGLRAENRELEERAESV [ST-9]”: in the data set with HL60 cells, the EC50 is 2 µM and the “cytotoxic activity compared with another peptide” value is on record as “significantly increased over that of ST-3”.
